Measurements taken from the supplement of paper PMC8671470.

Tests used:
Conditions in all cases: 72 h
KCL-22 [1] = experiment: cell viability (% survival relative to DMSO control, bortezomib = 0%); higher = less cytotoxic
Method in brief: (§1)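 In 384-well plates pre-printed with compounds at 1, 10, 100, 1000 or 10000 nM, duplicate wells received cells from 10 AML and 5 CML lines at densities within the linear growth range. The plates stayed at 37 °C with 5% CO2 for 72 h before CellTiter-Glo luminescence was recorded. Each entry is averaged percent survival. Scaling placed vehicle at 100% and a 10 µM positive control at 0%.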

K-562 [2] = experiment: as above
Method in brief: as §1

THP-1 [3] = experiment: as above
Method in brief: as §1

ML-2 [4] = experiment: as above
Method in brief: as §1

KG-1 [5] = experiment: as above
Method in brief: as §1

HL-60 [6] = experiment: as above
Method in brief: as §1

SHI-1 [7] = experiment: as above
Method in brief: as §1

HEL [8] = experiment: as above
Method in brief: as §1

MOLM-13 [9] = experiment: as above
Method in brief: as §1

NOMO-1 [10] = experiment: as above
Method in brief: as §1

MV4-11 [11] = experiment: as above
Method in brief: as §1

KU-812 [12] = experiment: as above
Method in brief: as §1

KCL-22 [13] = tested on: KCL-22
Method in brief: (§2)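 Each of fifteen myeloid leukaemia cell lines was seeded in RPMI 1640 at a density titrated to its linear growth range. The cells were incubated for 72 h at 37 °C and 5% CO2 with compounds at five tenfold doses from 1 to 10,000 nM, in duplicate. After ATP luminescence was normalised to vehicle and to a positive control at 10 µM, four-parameter log-logistic curves were fitted. These curves gave the IC50.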

K-562 [14] = tested on: K-562
Method in brief: as §2

Mono-Mac-6 = tested on: Mono-Mac-6
Method in brief: as §2

THP-1 [15] = tested on: THP-1
Method in brief: as §2

ML-2 [16] = tested on: ML-2
Method in brief: as §2

KG-1 [17] = tested on: KG-1
Method in brief: as §2

HL-60 [18] = tested on: HL-60
Method in brief: as §2

BV-173 = tested on: BV-173
Method in brief: as §2

SHI-1 [19] = tested on: SHI-1
Method in brief: as §2

LAMA-84 = tested on: LAMA-84
Method in brief: as §2

HEL [20] = tested on: HEL
Method in brief: as §2

MOLM-13 [21] = tested on: MOLM-13
Method in brief: as §2

NOMO-1 [22] = tested on: NOMO-1
Method in brief: as §2

MV4-11 [23] = tested on: MV4-11
Method in brief: as §2

KU-812 [24] = tested on: KU-812
Method in brief: as §2

HL-60 [25] = experiment: cell viability (% survival relative to DMSO control); higher = less cytotoxic
Method in brief: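 In 384-well plates, the full library was rescreened in duplicate on HL-60 cells in RPMI 1640 with 10% FBS, at 1–10,000 nM in five tenfold concentrations, for 72 h at 37 °C, 5% CO2. Each run also held DMSO or 100 nM of one of three metabolic inhibitors. Viability was measured by CellTiter-Glo and normalised to DMSO wells and to wells with proteasome inhibitor, present at 10 μM. Any area under the curve comes from four-parameter log-logistic fitting with drc and PharmacoGx.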

CCCc1nc(C)c2c(=O)nc(-c3cc(S(=O)(=O)N4CCN(CC)CC4)ccc3OCC)[nH]n12 [Vardenafil]
cell viability [%]
Conditions	1 nM	10 nM	100 nM	1000 nM	10000 nM
HEL [8]	91.9	111	94.4	102	93.7
HL-60 [6]	107	115	89.2	112	102
K-562 [2]	109	107	93.8	90.8	92.6
KCL-22 [1]	105	110	98.3	95.8	94.6
KG-1 [5]	95.4	95.9	92.8	110	107
KU-812 [12]	95.4	106	92	102	102
ML-2 [4]	98.8	96.3	88	97.4	110
MOLM-13 [9]	107	123	71.2	91.2	94.5
MV4-11 [11]	97.9	87.5	85.2	97.7	93.3
NOMO-1 [10]	94.4	84.3	96.1	101	93.1
SHI-1 [7]	102	115	89.8	99.7	101
THP-1 [3]	93.8	85	107	108	96.5

Conditions	IC50 (cell viability) [µM]
BV-173	> 10
HEL [20]	> 10
HL-60 [18]	> 10
K-562 [14]	> 10
KCL-22 [13]	> 10
KG-1 [17]	> 10
KU-812 [24]	> 10
LAMA-84	> 10
ML-2 [16]	> 10
MOLM-13 [21]	> 10
MV4-11 [23]	> 10
Mono-Mac-6	> 10
NOMO-1 [22]	> 10
SHI-1 [19]	> 10
THP-1 [15]	> 10

cell viability [%], HL-60 [25]
Conditions	0.001 µM	0.01 µM	0.1 µM	1 µM	10 µM
co-treatment: AZD3965 100 nM	98.1	100	96.8	108	100
co-treatment: DMSO vehicle	98.07	99.7	84.9	98.5	103
co-treatment: GSK2194069 100 nM	97.9	98.3	88.3	108.1	92.4
co-treatment: pictilisib 100 nM	101	104	93	104	107

CCc1c(C(=O)C(N)=O)c2c(OCC(=O)O)cccc2n1Cc1ccccc1 [Varespladib]
cell viability [%]
Conditions	1 nM	10 nM	100 nM	1000 nM	10000 nM
HEL [8]	94.8	111	99.2	109	87.6
HL-60 [6]	98.8	101	92.8	96.2	93.2
K-562 [2]	98.5	97.5	110	92.4	99.9
KCL-22 [1]	91.2	107	105	102	96.5
KG-1 [5]	99.5	96.9	99.4	95.9	94
KU-812 [12]	96.1	97.7	98.5	97.6	86.4
ML-2 [4]	105	105	109	104	89.7
MOLM-13 [9]	80.7	95.3	85.8	101	118
MV4-11 [11]	88.4	109	101	88.3	98.5
NOMO-1 [10]	102	91.6	101	115	95.2
SHI-1 [7]	106	99	106	92.9	93.4
THP-1 [3]	103	105	100	97.4	96.9

Conditions	IC50 (cell viability) [µM]
BV-173	> 10
HEL [20]	> 10
HL-60 [18]	> 10
K-562 [14]	> 10
KCL-22 [13]	> 10
KG-1 [17]	> 10
KU-812 [24]	> 10
LAMA-84	> 10
ML-2 [16]	> 10
MOLM-13 [21]	> 10
MV4-11 [23]	> 10
Mono-Mac-6	> 10
NOMO-1 [22]	> 10
SHI-1 [19]	> 10
THP-1 [15]	> 10

cell viability [%], HL-60 [25]
Conditions	0.001 µM	0.01 µM	0.1 µM	1 µM	10 µM
co-treatment: AZD3965 100 nM	97.7	99.9	102	100.2	97
co-treatment: DMSO vehicle	101	95.7	103	97.5	98.1
co-treatment: GSK2194069 100 nM	92.6	93.5	97	92.9	89.1
co-treatment: pictilisib 100 nM	103	99.9	107	97.7	97.2
